Source: patent US20120135959A1, “Metalloprotein inhibitors containing nitrogen based ligands” (priority 2006, published 2012)
Where two headings read alike, the source gives them in different places.

Legend:
MMP-3 = biological target: T1, MMP-3 (Homo sapiens, UniProt P08254); assay: biochemical; format: biochemical
T1 construct: purchased Biomol Research Laboratories

[1] = biological target: recombinant anthrax lethal factor (Bacillus anthracis, UniProt P15917); assay: biochemical; format: biochemical
MMP-1 [2] = biological target: T2, MMP-1 (Homo sapiens, UniProt P03956); conditions: for potency v. AHA: based on MMP-1 IC50; for IC50: read-out: MMP-1 IC50, fluorescence-based assay, pH 7.5, 1 h preincubation at 37° C., at least three independent experiments, spread in brackets
T2 sequence (P03956 100-469): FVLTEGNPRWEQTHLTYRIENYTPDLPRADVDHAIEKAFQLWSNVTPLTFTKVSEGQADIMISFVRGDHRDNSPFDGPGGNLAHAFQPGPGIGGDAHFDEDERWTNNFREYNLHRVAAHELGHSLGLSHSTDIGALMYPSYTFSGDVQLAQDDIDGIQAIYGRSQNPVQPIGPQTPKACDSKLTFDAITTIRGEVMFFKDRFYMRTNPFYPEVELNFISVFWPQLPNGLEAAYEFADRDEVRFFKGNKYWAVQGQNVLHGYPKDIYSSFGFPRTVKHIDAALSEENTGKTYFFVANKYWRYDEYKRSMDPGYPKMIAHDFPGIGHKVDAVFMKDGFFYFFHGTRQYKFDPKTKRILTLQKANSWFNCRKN

[3] = biological target: T3, soybean lipoxygenase (sbLO) (Glycine max, UniProt P08170); assay: Lipoxygenase assay (absorbance at 234 nm, linoleic acid substrate); format: biochemical; conditions: 3 hours preincubation; for inhibition at 300 µM: reference compounds, read-out: inhibition of product formation relative to control (no inhibitor)
T3 construct: purchased Sigma-Aldrich
T3 sequence (P08170 1-839): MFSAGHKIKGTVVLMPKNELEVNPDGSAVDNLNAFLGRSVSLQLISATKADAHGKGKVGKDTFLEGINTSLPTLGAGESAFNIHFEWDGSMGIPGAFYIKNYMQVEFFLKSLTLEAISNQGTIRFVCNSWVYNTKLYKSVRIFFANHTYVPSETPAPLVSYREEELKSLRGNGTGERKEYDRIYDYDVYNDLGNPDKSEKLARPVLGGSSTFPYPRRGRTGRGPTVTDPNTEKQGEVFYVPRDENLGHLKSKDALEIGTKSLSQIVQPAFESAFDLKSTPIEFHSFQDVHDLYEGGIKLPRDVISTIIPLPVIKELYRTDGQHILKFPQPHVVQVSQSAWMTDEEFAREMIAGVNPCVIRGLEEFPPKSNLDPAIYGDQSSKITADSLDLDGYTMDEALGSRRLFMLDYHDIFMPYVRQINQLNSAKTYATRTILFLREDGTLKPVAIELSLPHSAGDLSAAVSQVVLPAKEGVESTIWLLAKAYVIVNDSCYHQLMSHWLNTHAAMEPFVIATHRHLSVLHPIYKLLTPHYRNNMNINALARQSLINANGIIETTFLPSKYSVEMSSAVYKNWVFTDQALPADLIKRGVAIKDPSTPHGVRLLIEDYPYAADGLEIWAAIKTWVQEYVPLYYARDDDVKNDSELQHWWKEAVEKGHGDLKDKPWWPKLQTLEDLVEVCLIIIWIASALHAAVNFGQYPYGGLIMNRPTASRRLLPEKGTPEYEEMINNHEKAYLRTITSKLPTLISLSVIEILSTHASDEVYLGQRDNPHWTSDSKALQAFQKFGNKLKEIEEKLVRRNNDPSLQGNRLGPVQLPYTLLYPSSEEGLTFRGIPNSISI

MMP-1 [4] = biological target: T2, MMP-1; assay: biochemical

T1 sequence (P08254 100-477): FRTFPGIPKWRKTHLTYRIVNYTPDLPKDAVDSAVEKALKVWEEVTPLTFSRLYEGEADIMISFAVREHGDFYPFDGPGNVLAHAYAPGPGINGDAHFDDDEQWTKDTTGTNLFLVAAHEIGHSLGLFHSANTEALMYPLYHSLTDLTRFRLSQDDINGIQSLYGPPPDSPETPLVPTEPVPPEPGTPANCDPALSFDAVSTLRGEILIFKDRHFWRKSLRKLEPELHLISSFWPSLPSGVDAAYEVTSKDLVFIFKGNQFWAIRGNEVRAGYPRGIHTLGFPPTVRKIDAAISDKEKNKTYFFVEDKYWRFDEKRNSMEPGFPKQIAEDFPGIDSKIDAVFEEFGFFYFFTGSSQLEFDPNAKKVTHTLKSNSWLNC
Sequence of recombinant anthrax lethal factor (P15917 34-809 limits assumed): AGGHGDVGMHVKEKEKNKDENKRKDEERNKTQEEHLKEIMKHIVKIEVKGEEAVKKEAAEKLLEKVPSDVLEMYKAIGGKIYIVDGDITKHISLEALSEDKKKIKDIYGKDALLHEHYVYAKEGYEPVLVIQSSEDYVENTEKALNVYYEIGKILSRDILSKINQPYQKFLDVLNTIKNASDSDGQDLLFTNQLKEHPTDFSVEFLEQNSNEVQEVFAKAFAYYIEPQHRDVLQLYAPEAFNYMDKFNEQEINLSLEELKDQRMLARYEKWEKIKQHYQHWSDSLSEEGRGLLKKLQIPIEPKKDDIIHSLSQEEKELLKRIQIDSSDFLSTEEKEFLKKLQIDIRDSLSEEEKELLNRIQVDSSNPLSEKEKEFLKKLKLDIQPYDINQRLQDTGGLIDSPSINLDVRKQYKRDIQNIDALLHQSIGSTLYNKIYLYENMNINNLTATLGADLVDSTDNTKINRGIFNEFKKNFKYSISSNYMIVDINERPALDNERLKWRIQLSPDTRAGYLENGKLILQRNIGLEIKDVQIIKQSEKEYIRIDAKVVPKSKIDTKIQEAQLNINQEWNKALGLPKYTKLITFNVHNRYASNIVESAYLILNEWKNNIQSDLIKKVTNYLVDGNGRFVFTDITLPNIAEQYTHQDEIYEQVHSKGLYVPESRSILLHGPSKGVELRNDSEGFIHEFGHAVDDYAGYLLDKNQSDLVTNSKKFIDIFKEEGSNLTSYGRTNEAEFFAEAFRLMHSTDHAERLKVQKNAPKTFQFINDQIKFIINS

With `C1CNCCNCCN1` [ZBG 2] the “potency v. AHA” value (MMP-3) was 19-fold, the IC50 (MMP-3; pH 6, read-out: MMP-3 IC50) was 1350 µM and the IC50 ([1]; pH 7, read-out: LF IC50) was 1280 µM. The “potency v. AHA” value (MMP-1 [2]) was 7-fold and the IC50 (MMP-1 [2]) was 5690 µM.

In the case of `O=C(O)c1ccccn1` [ZBG 1, picolinic acid], the IC50 (MMP-3) is reported as 181 µM, the “potency v. AHA” value (MMP-3) is reported as 139-fold and the IC50 [1] is reported as 3500 µM. The “inhibition of lipoxygenase activity” value ([3]; ZBGs, method gives chelator final concentration 100 μM) was 2.3%, the “potency v. AHA” value (MMP-1 [2]) was 17-fold and the IC50 (MMP-1 [4]) was 2500 µM.

`CC(=O)NO` [AHA, acetohydroxamic acid, reference compound] gave an IC50 (MMP-3) of 25100 µM, an IC50 ([1]; pH 7, read-out: LF IC50) of 11400 µM and an inhibition at 300 µM [3] of 99%. For the same compound, the IC50 (MMP-1 [4]) was 41600 µM.

`C1CNCCNCCNCCN1` [ZBG 4, cyclen] was tested, and the “potency v. AHA” value (MMP-3) was 163-fold, the IC50 (MMP-3; pH 6, read-out: MMP-3 IC50) was 154 µM and the IC50 ([1]; pH 7, read-out: LF IC50) was 5700 µM. For the same compound, the “potency v. AHA” value (MMP-1 [2]) was 98-fold and the IC50 (MMP-1 [2]) was 430 µM.

Compound `Cc1occc(=O)c1O` [maltol] has an inhibition at 300 µM [3] of 70%.

In the case of `O=C(O)CNCC(=O)O` [ZBG 6, aminodiacetic acid], the “potency v. AHA” value (MMP-3) is reported as 139-fold, the IC50 (MMP-3; pH 6, read-out: MMP-3 IC50) is reported as 180 µM and the IC50 ([1]; pH 7, read-out: LF IC50) is reported as 930 µM. For the same compound, the “potency v. AHA” value (MMP-1 [2]) was 82-fold and the IC50 (MMP-1 [2]) was 510 µM.

Compound `c1ccc(CNCc2ccccn2)nc1` [ZBG 5, di(2-picolyl)amine] has an IC50 (MMP-1 [2]) of 63 µM.

For `O=C(O)c1cccc(C(=O)O)n1` [ZBG 3, dipicolenic acid], the “potency v. AHA” value (MMP-3) was 4-fold, the IC50 (MMP-3; pH 6, read-out: MMP-3 IC50) was 6100 µM and the IC50 ([1]; pH 7, read-out: LF IC50) was 2690 µM. The “potency v. AHA” value (MMP-1 [2]) was 3-fold and the IC50 (MMP-1 [2]) was 13500 µM.

For di(2-picolyl)amine [ZBG 5], the “potency v. AHA” value (MMP-3) was 185-fold, the IC50 (MMP-3; pH 6, read-out: MMP-3 IC50) was 136 µM and the IC50 ([1]; pH 7, read-out: LF IC50) was 370 µM. The “potency v. AHA” value (MMP-1 [2]) was 660-fold.
